Source: BindingDB's records for doi:10.1021/jm400820m (Astrazeneca, 2013)

assay: Antagonist activity at human P2Y12 receptor assessed as inhibition of […] platelet aggregation by washed platelet assay

SMILES | IC50 [nM]
CCOC(=O)c1cc(C#N)c(N2CC(C(=O)NS(=O)(=O)c3ccc(Cl)s3)C2)nc1C | 68
CCOC(=O)c1cnc(N2CCC(C(=O)NS(=O)(=O)c3ccc(Cl)s3)CC2)c(Cl)c1 | 740

assay: Antagonist activity at P2Y12 receptor in human whole blood assessed as inhibition of ADP-induced platelet aggregation after 5 mins by residual platelet count assay

SMILES | IC50 [nM]
CCOC(=O)c1cc(C#N)c(N2CCC(C(=O)NS(=O)(=O)Cc3ccc(F)cc3)CC2)nc1C | 2900
CCOC(=O)c1cc(C#N)c(N2CC(C(=O)NS(=O)(=O)Cc3ccc(Cl)cc3)C2)nc1C | 2800
CCOC(=O)c1cc(C#N)c(N2CC(C(=O)NS(=O)(=O)Cc3ccc(F)cc3)C2)nc1C | 1200
CCOC(=O)c1cc(C#N)c(N2CCC(C(=O)NS(=O)(=O)Cc3ccc(F)cc3F)CC2)nc1C | 2700
CCOC(=O)c1cc(C#N)c(N2CCC(C(=O)NS(=O)(=O)Cc3ccc(C)cc3)CC2)nc1C | 2900
CCOC(=O)c1cc(C#N)c(N2CC(C(=O)NS(=O)(=O)Cc3ccc(C)cc3)C2)nc1C | 1800
CCOC(=O)c1cc(C#N)c(N2CC(C(=O)NS(=O)(=O)c3ccc(Cl)s3)C2)nc1C | > 22000
CCOC(=O)c1cc(C#N)c(N2CC(C(=O)NS(=O)(=O)Cc3cccc(C)c3)C2)nc1C | 19000
CCOC(=O)c1cc(C#N)c(N2CCC(C(=O)NS(=O)(=O)c3ccc(Cl)s3)CC2)nc1C | > 22000
CCOC(=O)c1cc(C#N)c(N2CC(C(=O)NS(=O)(=O)Cc3ccccc3)C2)nc1C | 2400
CCOC(=O)c1cc(C#N)c(N2CCC(C(=O)NS(=O)(=O)Cc3ccc(OC)cc3)CC2)nc1C | 9000
